US8895585B2, “Nicotinamide derivative or salt thereof” (FUJIFILM Corporation, priority 2010, dated 2014)

Experiments:
[1] = target: T1, glutathione S-transferase (GST)-fused full-length human Syk protein (Homo sapiens, UniProt P43405); test: Syk enzyme assay; assay type: biochemical; conditions: Syk enzyme assay, Test Example 1; read-out: IC50 of Syk-inhibitory activity
T1 construct: (GST)-fused full-length human Syk protein; GST (glutathione S-transferase); purchased Carna Biosciences
How it was run: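 Baculovirus-expressed enzyme (1.2 ng) was preincubated with compound in HEPES pH 7.0/MgCl2/DTT buffer, 2 min shaking then 13 min at room temperature. Biotin-EDPDYEWPSA-NH2 (0.4 μM final) and ATP (27 μM final) were added for 40 min at room temperature. EDTA stop, streptavidin-XL/PT66-K TR-FRET at 615/665 nm gave IC50.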

THP-1 cells = test: TNFα generation assay; assay type: cell-based, human; conditions: Homo sapiens, THP-1, THP-1 cells; Table 22; read-out: IC50 in TNFα generation assay
How it was run: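 THP-1 cells differentiated to macrophage-like cells with 10 ng/ml IFN-γ for 2 days, preincubated with compound 30 min at room temperature, then cultured 7 h on plates coated with human IgG (10 μg/ml). Secreted TNFα measured by ELISA or AlphaLISA.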

SMILES	IC50 [1]	IC50 (THP-1 cells)
CCCC[C@H](CN)Nc1nc(Nc2ccc3c(cnn3CC)c2)c(C(N)=O)cc1F [Example 006-323, (R)-6-((1-aminohexan-2-yl)amino)-2-((1-ethyl-1H-indazol-5-yl)amino)-5-fluoronicotinamide]	< 10 nM	65 to 130 nM
CCCC[C@H](CN)Nc1nc(Nc2ccc3c(cnn3CCOC)c2)c(C(N)=O)cc1F [Example 006-338, (R)-6-((1-aminohexan-2-yl)amino)-5-fluoro-2-((1-(2-methoxyethyl)-1H-indazol-5-yl)amino)nicotinamide]	10 to 50 nM	65 to 130 nM
COCCn1ncc2cc(Nc3nc(N[C@H](CC4CC4)[C@H](C)N)c(F)cc3C(N)=O)ccc21 [Example 006-343, 6-(((2R,3S)-3-amino-1-cyclopropylbutan-2-yl)amino)-5-fluoro-2-((1-(2-methoxyethyl)-1H-indazol-5-yl)amino)nicotinamide]	< 10 nM	65 to 130 nM
C[C@H](N)[C@@H](CC1CC1)Nc1nc(Nc2ccc3c(cnn3C)c2)c(C(N)=O)cc1F [Example 006-345, 6-(((2R,3S)-3-amino-1-cyclopropylbutan-2-yl)amino)-5-fluoro-2-((1-methyl-1H-indazol-5-yl)amino)nicotinamide]	< 10 nM	65 to 130 nM
COc1ccc2cc(Nc3nc(N[C@H](CC4CC4)[C@H](C)N)c(F)cc3C(N)=O)cnc2c1 [Example 006-346, 6-(((2R,3S)-3-amino-1-cyclopropylbutan-2-yl)amino)-5-fluoro-2-((7-methoxyquinolin-3-yl)amino)nicotinamide]	< 10 nM	130 to 200 nM
C[C@H](N)[C@@H](CC1CC1)Nc1nc(Nc2ccc3scnc3c2)c(C(N)=O)cc1F [Example 006-348, 6-(((2R,3S)-3-amino-1-cyclopropylbutan-2-yl)amino)-2-(benzo[d]thiazol-5-ylamino)-5-fluoronicotinamide]	10 to 50 nM	65 to 130 nM
C[C@H](N)[C@@H](CC1CC1)Nc1nc(Nc2cncc(C3CC3)c2)c(C(N)=O)cc1F [Example 006-350, 6-(((2R,3S)-3-amino-1-cyclopropylbutan-2-yl)amino)-2-((5-cyclopropylpyridin-3-yl)amino)-5-fluoronicotinamide]	< 10 nM	65 to 130 nM
C[C@H](N)[C@@H](CC1CC1)Nc1nc(Nc2cncc(-c3ccccc3)c2)c(C(N)=O)cc1F [Example 006-351, 6-(((2R,3S)-3-amino-1-cyclopropylbutan-2-yl)amino)-5-fluoro-2-((5-phenylpyridin-3-yl)amino)nicotinamide]	< 10 nM	65 to 130 nM
C[C@H](N)[C@@H](CC1CC1)Nc1nc(Nc2cncc(-n3nccn3)c2)c(C(N)=O)cc1F [Example 006-352, 2-((5-(2H-1,2,3-triazol-2-yl)pyridin-3-yl)amino)-6-(((2R,3S)-3-amino-1-cyclopropylbutan-2-yl)amino)-5-fluoronicotinamide]	< 10 nM	< 65 nM
C[C@H](N)[C@@H](CC1CC1)Nc1nc(Nc2ccnc(-n3cncn3)c2)c(C(N)=O)cc1F [Example 006-353, 2-((2-(1H-1,2,4-triazol-1-yl)pyridin-4-yl)amino)-6-(((2R,3S)-3-amino-1-cyclopropylbutan-2-yl)amino)-5-fluoronicotinamide]	< 10 nM	< 65 nM
C[C@H](N)[C@@H](CC1CC1)Nc1nc(Nc2cncc3ccccc23)c(C(N)=O)cc1F [Example 006-354, 6-(((2R,3S)-3-amino-1-cyclopropylbutan-2-yl)amino)-5-fluoro-2-((isoquinolin-4-yl)amino)nicotinamide]	< 10 nM	65 to 130 nM

The next lines start with the values.

IC50 [1]	IC50 (THP-1 cells)	SMILES
10 to 50 nM	130 to 200 nM	COc1cccc(-c2cncc(Nc3nc(N[C@@H](CN)CC(C)C)c(F)cc3C(N)=O)c2)c1F [Example 006-318, (R)-6-((1-amino-4-methylpentan-2-yl)amino)-5-fluoro-2-((5-(2-fluoro-3-methoxyphenyl)pyridin-3-yl)amino)nicotinamide]
< 10 nM	130 to 200 nM	COc1ccc(F)c(-c2cc(Nc3nc(N[C@@H](CN)CC(C)C)c(F)cc3C(N)=O)ccn2)c1 [Example 006-321, (R)-6-((1-amino-4-methylpentan-2-yl)amino)-5-fluoro-2-((2-(2-fluoro-5-methoxyphenyl)pyridin-4-yl)amino)nicotinamide]
< 10 nM	130 to 200 nM	CC(C)C[C@H](CN)Nc1nc(Nc2ccnc(-c3ccccc3F)c2)c(C(N)=O)cc1F [Example 006-324, (R)-6-((1-amino-4-methylpentan-2-yl)amino)-5-fluoro-2-((2-(2-fluorophenyl)pyridin-4-yl)amino)nicotinamide]
< 10 nM	< 65 nM	CC[C@@H](Nc1nc(Nc2ccnc(-c3ccccc3F)c2)c(C(N)=O)cc1F)[C@H](C)N [Example 006-329, 6-(((2S,3R)-2-aminopentan-3-yl)amino)-5-fluoro-2-((2-(2-fluorophenyl)pyridin-4-yl)amino)nicotinamide]
< 10 nM	< 65 nM	CC[C@@H](Nc1nc(Nc2ccnc(-c3cccc(OC)c3)c2)c(C(N)=O)cc1F)[C@H](C)N [Example 006-330, 6-(((2S,3R)-2-aminopentan-3-yl)amino)-5-fluoro-2-((2-(3-methoxyphenyl)pyridin-4-yl)amino)nicotinamide]
< 10 nM	65 to 130 nM	CC[C@@H](Nc1nc(Nc2ccnc(-c3ccc(OC)cc3)c2)c(C(N)=O)cc1F)[C@H](C)N [Example 006-331, 6-(((2S,3R)-2-aminopentan-3-yl)amino)-5-fluoro-2-((2-(4-methoxyphenyl)pyridin-4-yl)amino)nicotinamide]
< 10 nM	< 65 nM	CC[C@@H](Nc1nc(Nc2ccnc(-c3ccc(OC)cc3F)c2)c(C(N)=O)cc1F)[C@H](C)N [Example 006-332, 6-(((2S,3R)-2-aminopentan-3-yl)amino)-5-fluoro-2-((2-(2-fluoro-4-methoxyphenyl)pyridin-4-yl)amino)nicotinamide]
< 10 nM	65 to 130 nM	CCC[C@@H](Nc1nc(Nc2ccnc(-c3ccccc3F)c2)c(C(N)=O)cc1F)[C@H](C)N [Example 006-333, 6-(((2S,3R)-2-aminohexan-3-yl)amino)-5-fluoro-2-((2-(2-fluorophenyl)pyridin-4-yl)amino)nicotinamide]
< 10 nM	65 to 130 nM	CCC[C@@H](Nc1nc(Nc2ccnc(-c3cccc(OC)c3)c2)c(C(N)=O)cc1F)[C@H](C)N [Example 006-334, 6-(((2S,3R)-2-aminohexan-3-yl)amino)-5-fluoro-2-((2-(3-methoxyphenyl)pyridin-4-yl)amino)nicotinamide]
< 10 nM	130 to 200 nM	CCC[C@@H](Nc1nc(Nc2ccnc(-c3ccc(OC)cc3)c2)c(C(N)=O)cc1F)[C@H](C)N [Example 006-335, 6-(((2S,3R)-2-aminohexan-3-yl)amino)-5-fluoro-2-((2-(4-methoxyphenyl)pyridin-4-yl)amino)nicotinamide]
< 10 nM	130 to 200 nM	CCC[C@@H](Nc1nc(Nc2ccnc(-c3ccc(OC)cc3F)c2)c(C(N)=O)cc1F)[C@H](C)N [Example 006-336, 6-(((2S,3R)-2-aminohexan-3-yl)amino)-5-fluoro-2-((2-(2-fluoro-4-methoxyphenyl)pyridin-4-yl)amino)nicotinamide]
